{"source": "patent US6706663B2", "about": "“Herbicidal 3-heterocyclic substituted benzisothiazole and benzisoxazole compounds” (Wyeth, priority 2000, dated 2004)", "key": {"[1]": {"test_system": "TRZAWR (Wheat, Winter, cv Riband)", "experiment": "Preemergence herbicidal evaluation", "format": "in vivo, Triticum aestivum", "details": "preemergence, rated 4-5 weeks after treatment", "outline": "(§1)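 Scores (0–9) reflect visual comparison with control plants for stand, vigor, malformation, size and chlorosis. Seeds in potting soil received a post-planting spray of compound in aqueous acetone and grew in a greenhouse until assessment 4–5 weeks later.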"}, "[2]": {"test_system": "ORYSAT (Rice, Tebonnet)", "experiment": "Flooded paddy, post-transplant rice tolerance", "format": "in vivo, Oryza sativa, (L.) Tebonnet", "details": "flooded paddy, post-transplant rice, rated 3-4 weeks after treatment, 0-9 rating scale", "outline": "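Scores (0-9) reflect visual injury relative to untreated plants in flooded silt loam. Each pot held two transplanted ten-day-old seedlings under 1.5 to 3 cm standing water in the greenhouse.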"}, "[3]": {"test_system": "ZEAMX (Corn, Field)", "experiment": "Postemergence herbicidal evaluation", "format": "in vivo, Zea mays, L.", "outline": "(§2)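 Seedlings grown about two weeks in flats, sprayed, then kept under standard greenhouse care. Rated visually 4–5 weeks after treatment on a 0–9 scale (stand, vigour, malformation, size, chlorosis, overall appearance) relative to untreated control; repeat tests averaged.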"}, "[4]": {"test_system": "GALAP (Galium aparine)", "experiment": "Preemergence herbicidal evaluation", "format": "in vivo", "details": "preemergence, rated 4-5 weeks after treatment", "outline": "as §1"}, "[5]": {"test_system": "IPOHE (Ipomoea hederacea)", "experiment": "Preemergence herbicidal evaluation", "format": "in vivo, (L.) Jacq.", "details": "preemergence, rated 4-5 weeks after treatment"}, "[6]": {"test_system": "ORYSAT (Rice, Tebonnet)", "experiment": "Postemergence herbicidal evaluation", "format": "in vivo, Oryza sativa, (L.) Tebonnet", "outline": "as §2"}, "[7]": {"test_system": "CASOB (Cassia obtusifolia)", "experiment": "Preemergence herbicidal evaluation", "format": "in vivo, L.", "details": "preemergence, rated 4-5 weeks after treatment", "outline": "as §1"}, "[8]": {"test_system": "CHEAL (Chenopodium album)", "experiment": "Preemergence herbicidal evaluation", "format": "in vivo, L.", "details": "preemergence, rated 4-5 weeks after treatment", "outline": "as §1"}, "[9]": {"test_system": "AMBEL (Ambrosia artemisifolia)", "experiment": "Preemergence herbicidal evaluation", "format": "in vivo, L.", "details": "preemergence, rated 4-5 weeks after treatment", "outline": "as §1"}, "[10]": {"test_system": "CYPSE (Cyperus serotinus)", "experiment": "Flooded paddy, preemergence weed control", "format": "in vivo, Rottb.", "details": "rated 3-4 weeks after treatment, 0-9 rating scale", "outline": "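Seeds or propagules were planted 0.5 cm deep in silt loam and flooded to 1.5–3 cm. Compounds in 50/50 v/v aqueous/acetone were pipetted into the flood water at about 0.0080 to 0.1250 kg/ha. After 3–4 weeks in the greenhouse, effect was rated visually on a 0–9 scale versus untreated control.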"}, "[11]": {"test_system": "GLXMAW (Soybean, Williams)", "experiment": "Postemergence herbicidal evaluation", "format": "in vivo, Glycine max, (L.) Merr. cv Williams", "outline": "as §2"}, "[12]": {"test_system": "ABUTH (Abutilon theophrasti)", "experiment": "Postemergence herbicidal evaluation", "format": "in vivo, Medic.", "outline": "as §2"}, "[13]": {"test_system": "ABUTH (Abutilon theophrasti)", "experiment": "Preemergence herbicidal evaluation", "format": "in vivo, Medic.", "details": "preemergence, rated 4-5 weeks after treatment"}, "[14]": {"test_system": "GALAP (Galium aparine)", "experiment": "Postemergence herbicidal evaluation", "format": "in vivo", "outline": "as §2"}, "[15]": {"test_system": "SAGPY (Sagittaria pygmaea)", "experiment": "Flooded paddy, preemergence weed control", "format": "in vivo, L.", "details": "rated 3-4 weeks after treatment, 0-9 rating scale", "outline": "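Ratings of 0-9 reflect visual comparison with a control for stand, vigor, deformity, size, chlorosis and overall look. Propagules were placed in shallow silt loam (top 0.5 cm) under a continuous 1.5–3 cm flood and grown in the greenhouse.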"}, "[16]": {"test_system": "ORYSAT (Rice, Tebonnet)", "experiment": "Preemergence herbicidal evaluation", "format": "in vivo, Oryza sativa, (L.) Tebonnet", "details": "preemergence, rated 4-5 weeks after treatment"}, "[17]": {"test_system": "CASOB (Cassia obtusifolia)", "experiment": "Postemergence herbicidal evaluation", "format": "in vivo, L.", "outline": "as §2"}, "[18]": {"test_system": "CHEAL (Chenopodium album)", "experiment": "Postemergence herbicidal evaluation", "format": "in vivo, L.", "outline": "as §2"}, "[19]": {"test_system": "AMBEL (Ambrosia artemisifolia)", "experiment": "Postemergence herbicidal evaluation", "format": "in vivo, L.", "outline": "as §2"}, "[20]": {"test_system": "ECHCG (Echinochloa crus-galli)", "experiment": "Postemergence herbicidal evaluation", "format": "in vivo, (L.) Beau", "outline": "as §2"}}}
{"smiles": "Cc1cccnc1-c1nsc2ccc(-n3c(=O)cc(C(F)(F)F)n(C)c3=O)cc12", "note": "[Compound 19, 1-methyl-3-[3-(3-methyl-2-pyridyl)-1,2-benzisothiazol-5-yl]-6-(trifluoromethyl)uracil]", "values": [{"measurement": "TRZAWR preemergence herbicidal rating", "setting": "[1]; Rate 0.0620 kg/ha", "result": 5.5}, {"measurement": "TRZAWR preemergence herbicidal rating", "setting": "[1]; Rate 0.1250 kg/ha", "result": 8.0}, {"measurement": "TRZAWR preemergence herbicidal rating", "setting": "[1]; Rate 0.2500 kg/ha", "result": 8.5}, {"measurement": "herbicidal rating, ORYSAT (rice tolerance)", "setting": "[2]; rate 0.0080 kg/ha", "result": 2.0}, {"measurement": "herbicidal rating, ORYSAT (rice tolerance)", "setting": "[2]; rate 0.0320 kg/ha", "result": 6.5}, {"measurement": "herbicidal rating, ORYSAT (rice tolerance)", "setting": "[2]; rate 0.1250 kg/ha", "result": 8.0}, {"measurement": "Postemergence herbicidal rating, ZEAMX", "setting": "[3]; rate 0.0320 kg/ha", "result": 5.3}, {"measurement": "Postemergence herbicidal rating, ZEAMX", "setting": "[3]; rate 0.0620 kg/ha", "result": 5.3}, {"measurement": "GALAP preemergence herbicidal rating", "setting": "[4]; Rate 0.0620 kg/ha", "result": 0.5}, {"measurement": "GALAP preemergence herbicidal rating", "setting": "[4]; Rate 0.1250 kg/ha", "result": 6.0}, {"measurement": "GALAP preemergence herbicidal rating", "setting": "[4]; Rate 0.2500 kg/ha", "result": 9.0}, {"measurement": "IPOHE preemergence herbicidal rating", "setting": "[5]; Rate 0.0620 kg/ha", "result": 9.0}, {"measurement": "IPOHE preemergence herbicidal rating", "setting": "[5]; Rate 0.1250 kg/ha", "result": 8.7}, {"measurement": "IPOHE preemergence herbicidal rating", "setting": "[5]; Rate 0.2500 kg/ha", "result": 9.0}, {"measurement": "Postemergence herbicidal rating, ORYSAT", "setting": "[6]; rate 0.0320 kg/ha", "result": 3.3}, {"measurement": "Postemergence herbicidal rating, ORYSAT", "setting": "[6]; rate 0.0620 kg/ha", "result": 3.5}, {"measurement": "CASOB preemergence herbicidal rating", "setting": "[7]; Rate 0.0620 kg/ha", "result": 4.7}, {"measurement": "CASOB preemergence herbicidal rating", "setting": "[7]; Rate 0.1250 kg/ha", "result": 5.7}, {"measurement": "CASOB preemergence herbicidal rating", "setting": "[7]; Rate 0.2500 kg/ha", "result": 8.3}, {"measurement": "CHEAL preemergence herbicidal rating", "setting": "[8]; Rate 0.0620 kg/ha", "result": 9.0}, {"measurement": "CHEAL preemergence herbicidal rating", "setting": "[8]; Rate 0.1250 kg/ha", "result": 9.0}, {"measurement": "CHEAL preemergence herbicidal rating", "setting": "[8]; Rate 0.2500 kg/ha", "result": 9.0}, {"measurement": "AMBEL preemergence herbicidal rating", "setting": "[9]; Rate 0.0620 kg/ha", "result": 6.7}, {"measurement": "AMBEL preemergence herbicidal rating", "setting": "[9]; Rate 0.1250 kg/ha", "result": 9.0}, {"measurement": "AMBEL preemergence herbicidal rating", "setting": "[9]; Rate 0.2500 kg/ha", "result": 9.0}, {"measurement": "herbicidal rating, CYPSE", "setting": "[10]; rate 0.0080 kg/ha", "result": 0.0}, {"measurement": "herbicidal rating, CYPSE", "setting": "[10]; rate 0.0320 kg/ha", "result": 0.0}, {"measurement": "herbicidal rating, CYPSE", "setting": "[10]; rate 0.1250 kg/ha", "result": 6.5}, {"measurement": "Postemergence herbicidal rating, GLXMAW", "setting": "[11]; rate 0.0320 kg/ha", "result": 8.3}, {"measurement": "Postemergence herbicidal rating, GLXMAW", "setting": "[11]; rate 0.0620 kg/ha", "result": 8.0}, {"measurement": "Postemergence herbicidal rating, ABUTH", "setting": "[12]; rate 0.0320 kg/ha", "result": 9.0}, {"measurement": "Postemergence herbicidal rating, ABUTH", "setting": "[12]; rate 0.0620 kg/ha", "result": 9.0}, {"measurement": "ABUTH preemergence herbicidal rating", "setting": "[13]; Rate 0.0620 kg/ha", "result": 7.7}, {"measurement": "ABUTH preemergence herbicidal rating", "setting": "[13]; Rate 0.1250 kg/ha", "result": 9.0}, {"measurement": "ABUTH preemergence herbicidal rating", "setting": "[13]; Rate 0.2500 kg/ha", "result": 9.0}, {"measurement": "Postemergence herbicidal rating, GALAP", "setting": "[14]; rate 0.0320 kg/ha", "result": 3.5}, {"measurement": "Postemergence herbicidal rating, GALAP", "setting": "[14]; rate 0.0620 kg/ha", "result": 6.0}, {"measurement": "herbicidal rating, SAGPY", "setting": "[15]; rate 0.0080 kg/ha", "result": 0.0}, {"measurement": "herbicidal rating, SAGPY", "setting": "[15]; rate 0.0320 kg/ha", "result": 2.5}, {"measurement": "herbicidal rating, SAGPY", "setting": "[15]; rate 0.1250 kg/ha", "result": 7.0}, {"measurement": "ORYSAT preemergence herbicidal rating", "setting": "[16]; Rate 0.0620 kg/ha", "result": 5.3}, {"measurement": "ORYSAT preemergence herbicidal rating", "setting": "[16]; Rate 0.1250 kg/ha", "result": 7.0}, {"measurement": "ORYSAT preemergence herbicidal rating", "setting": "[16]; Rate 0.2500 kg/ha", "result": 8.0}, {"measurement": "Postemergence herbicidal rating, CASOB", "setting": "[17]; rate 0.0320 kg/ha", "result": 1.5}, {"measurement": "Postemergence herbicidal rating, CASOB", "setting": "[17]; rate 0.0620 kg/ha", "result": 5.0}, {"measurement": "Postemergence herbicidal rating, CHEAL", "setting": "[18]; rate 0.0320 kg/ha", "result": 8.0}, {"measurement": "Postemergence herbicidal rating, CHEAL", "setting": "[18]; rate 0.0620 kg/ha", "result": 9.0}, {"measurement": "Postemergence herbicidal rating, AMBEL", "setting": "[19]; rate 0.0320 kg/ha", "result": 9.0}, {"measurement": "Postemergence herbicidal rating, AMBEL", "setting": "[19]; rate 0.0620 kg/ha", "result": 9.0}, {"measurement": "Postemergence herbicidal rating, ECHCG", "setting": "[20]; rate 0.0320 kg/ha", "result": 2.0}, {"measurement": "Postemergence herbicidal rating, ECHCG", "setting": "[20]; rate 0.0620 kg/ha", "result": 3.0}]}
